In patent US20150218534A1, “MODIFIED DNA POLYMERASE” (TOYOBO CO., LTD., priority 2012, published 2015):
Numbering of substitutions follows the chain as printed. In names and notes the source's numbering stands.

B1: KOD P36H: modified KOD DNA polymerase with P36H (protein, listed as Thermococcus kodakaraensis)
chain: MILDTDYITEDGKPVIRIFKKENGEFKIEYDRTFEHYFYALLKDDSAIEEVKKITAERHGTVVTVKRVEKVQKKFLGRPVEVWKLYFTHPQDVPAIRDKIREHPAVIDIYEYDIPFAKRYLIDKGLVPMEGDEELKMLAFDIETLYHEGEEFAEGPILMISYADEEGARVITWKNVDLPYVDVVSTEREMIKRFLRVVKEKDPDVLITYNGDNFDFAYLKKRCEKLGINFALGRDGSEPKIQRMGDRFAVEVKGRIHFDLYPVIRRTINLPTYTLEAVYEAVFGQPKEKVYAEEITTAWETGENLERVARYSMEDAKVTYELGKEFLPMEAQLSRLIGQSLWDVSRSSTGNLVEWFLLRKAYERNELAPNKPDEKELARRRQSYEGGYVKEPERGLWENIVYLDFRSLYPSIIITHNVSPDTLNREGCKEYDVAPQVGHRFCKDFPGFIPSLLGDLLEERQKIKKKMKATIDPIERKLLDYRQRAIKILANSYYGYYGYARARWYCKECAESVTAWGREYITMTIKEIEEKYGFKVIYSDTDGFFATIPGADAETVKKKAMEFLKYINAKLPGALELEYEGFYKRGFFVTKKKYAVIDEEGKITTRGLEIVRRDWSEIAKETQARVLEALLKDGDVEKAVRIVKEVTEKLSKYEVPPEKLVIHEQITRDLKDYKATGPHVAVAKRLAARGVKIRPGTVISYIVLKGSGRIGDRAIPFDEFDPTKHKYDAEYYIENQVLPAVERILRAFGYRKEDLRYQKTRQVGLSAWLKPKGT
B2: KOD V93K: modified KOD DNA polymerase with V93K (protein, listed as Thermococcus kodakaraensis)
chain: B1 chain with H36P, V93K
B3: KOD P36R: modified KOD DNA polymerase with P36R (protein, listed as Thermococcus kodakaraensis)
chain: B1 chain with H36R
B4: KOD V93Q: modified KOD DNA polymerase with V93Q (protein, listed as Thermococcus kodakaraensis)
chain: B1 chain with H36P, V93Q
B5: KOD V93R: modified KOD DNA polymerase with V93R (protein, listed as Thermococcus kodakaraensis)
chain: B1 chain with H36P, V93R
B6: KOD P36H/V93K: modified KOD DNA polymerase with P36H and V93K (protein, listed as Thermococcus kodakaraensis)
chain: B1 chain with V93K

Tests used:
Format in all cases: biochemical
482 bp of human β-globin = test: PCR amplification of 482 bp of human β-globin with dUTP in place of dTTP; set-up: key to Results of PCR in the presence of dUTP 481 bp: A: Amplified; B: Amplified (faint band); C: Not amplified; conditions: for PCR amplification of 482 bp with dUTP: 100% dUTP instead of dTTP (FIGS. 5 to 8); for Results of PCR in the presence of dUTP 481 bp: dTTP replaced by dUTP, 35 cycles
Outline: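 482 bp human β-globin amplified from 10 ng human genomic DNA with 1 U enzyme premixed with KOD antibody, using 0.2 mM dNTPs with either dTTP or dUTP, 1.5 mM MgSO4, 15 pmol primers. Cycling: 94 °C 2 min, then 35 cycles of 98 °C 10 s, 68 °C 1 min; products analysed by MultiNA DNA-1000 microchip electrophoresis.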

[1] = system: 0.7 kbp of human β-globin amplified in PCR with dUTP; test: Degradation with UNG of DNA amplified in the presence of dUTP; conditions: for degradation with UNG of DNA amplified with the polymerase in the presence of dUTP: 37° C. for 10 minutes (FIG. 13)
Procedure: It was confirmed whether 0.7 kbp of human β-globin amplified using KOD mutant with reduced uracil sensitivity (N210D/Y7A/P36H) in PCR with dUTP was degraded by being reacted with UNG. For PCR, components included in KOD-Plus-Ver. 2 (produced by Toyobo Co. Ltd.) were used. 50 μl of a reaction solution containing 1× PCR buffer, 1.5 mM MgSO4, dNTPs (dATP, dUTP, dCTP, dGTP) in an amount of 2 mM in which dTTP was replaced by dUTP, primers (SEQ ID NOs: 50 and 51) in an amount of 15 pmol, 10 ng of human genomic DNA (produced by Roche), and 1 U of the enzyme mixed with an antibody was used. PCR was performed using a GeneAmp PCR system 9700 (Applied Biosystems) on the following schedule: preliminary reaction at 94° C. for 2 minutes, followed by 35 cycles, each cycle consisting of 98° C. for 10 seconds, 60° C. for 30 seconds, and 68° C. for 1 minute. The amplification products were diluted with the above-mentioned 1× PCR buffer to 10 ng/μl, 8 μl of the diluted amplification products was mixed with 2 μl of various concentrations of UNG (produced by Roche), and the mixtures were reacted at 37° C. for 10 minutes. After the completion of each individual reaction, each of the mixtures was analyzed using a DNA-1000 kit for MultiNA (produced by Shimadzu Corporation) to confirm the amount of amplification products.

Psychrobacter DNA = test: PCR amplification using inosine-containing primers; conditions: primers 75 pmol or 150 pmol, 35 cycles (FIG. 11)
Procedure: Using inosine-containing primers, the difference in PCR amplification was compared. For comparison, KOD mutants and KOD (wild-type), each mixed with 1 μg of a KOD antibody per U of the enzyme, and Taq DNA polymerase mixed with an antibody (a mixture of equal amounts of Taq DNA polymerase (produced by Toyobo Co. Ltd.) and Anti-Taq High (produced by Toyobo Co. Ltd.)) were used.
For PCR with the KOD mutants and PCR with the KOD, a buffer, MgSO4, and dNTPs included in KOD-Plus-Ver. 2 (produced by Toyobo Co. Ltd.) were used. 50 μl of individual reaction solutions containing 1× PCR buffer, 1.5 mM MgSO4, dNTPs (dATP, dTTP, dCTP, dGTP) in an amount of 0.2 mM, primers (SEQ ID NOs: 40 and 41) in an amount of 75 pmol or 150 pmol, 100 ng of Psychrobacter DNA, and 1 U of each respective enzyme mixed with the antibody were used. PCR was performed using a GeneAmp PCR system 9700 (Applied Biosystems) on the following schedule: preliminary reaction at 94° C. for 2 minutes, followed by 35 cycles, each cycle consisting of 98° C. for 10 seconds, 54° C. for 10 seconds, and 68° C. for 1 minute.
For PCR with the Taq DNA polymerase, 50 μl of a reaction solution containing 1× buffer included in Blend Taq (product of Toyobo), dNTPs (dATP, […], dCTP, dGTP) in an amount of 0.2 mM, primers in an amount of 75 pmol or 150 pmol (the same as above), 100 ng of Psychrobacter DNA, and 2.5 U of the enzyme mixed with the antibody was used. PCR was performed using a GeneAmp PCR system 9700 (Applied Biosystems) on the following schedule: preliminary reaction at 94° C. for 2 minutes, followed by 35 cycles, each cycle consisting of 94° C. for 30 seconds, 54° C. for 30 seconds, and 68° C. for 1 minute.
After the completion of each individual reaction, each of the resulting reaction solutions was analyzed using a DNA-1000 kit for MultiNA (produced by Shimadzu Corporation) to confirm amplified DNA fragments.

| Molecule | PCR amplification of 482 bp with dUTP (482 bp of human β-globin) | PCR amplification of 482 bp with dUTP (482 bp of human β-globin; listed as V93K/Y7A) | Results of PCR in the presence of dUTP 481 bp (482 bp of human β-globin) | degradation with UNG of DNA amplified with the polymerase in the presence of dUTP [1] | amplification with inosine-containing primers (Psychrobacter DNA) | amount of UNG that completely degraded the amplified DNA ([1]; 80 ng of DNA, 37° C. for 10 minutes) |
| --- | --- | --- | --- | --- | --- | --- |
| KOD Y7A/V93K: modified KOD DNA polymerase with Y7A and V93K | allowed for PCR amplification | greatly improve the amplification amount, compared to V93K | A | the DNA was degraded with UNG | stable amplification was confirmed |  |
| KOD Y7A/P36H: modified KOD DNA polymerase with Y7A and P36H | allowed for PCR amplification |  | A | the DNA was degraded with UNG | stable amplification was confirmed |  |
| KOD N210D/Y7A/P36H: KOD N210D (exo(−)) mutant with Y7A and P36H |  |  | A | can be degraded by being reacted with UNG | stable amplification was confirmed | 0.25 U |
| B1 |  |  | A |  |  |  |
| B2 |  |  | A |  |  |  |
| B3 |  |  | A |  |  |  |
| B4 |  |  | A |  |  |  |
| B5 |  |  | A |  |  |  |
| B6 |  |  | A |  |  |  |
